This is an account of results in publication PMC8262883, “Human Gut Faecalibacterium prausnitzii Deploys a Highly Efficient Conserved System To Cross-Feed on β-Mannan-Derived Oligosaccharides” (mBio, 2021).

This test has as its target T1, FpMOBP (Faecalibacterium prausnitzii, UniProt D4KAW3).
T1 construct: gene FPR_17280; mature form without predicted signal peptide, C-terminal His6 tag (pNIC-CH), E. coli BL21 STAR; 48 kDa
T1 sequence (D4KAW3 26-470): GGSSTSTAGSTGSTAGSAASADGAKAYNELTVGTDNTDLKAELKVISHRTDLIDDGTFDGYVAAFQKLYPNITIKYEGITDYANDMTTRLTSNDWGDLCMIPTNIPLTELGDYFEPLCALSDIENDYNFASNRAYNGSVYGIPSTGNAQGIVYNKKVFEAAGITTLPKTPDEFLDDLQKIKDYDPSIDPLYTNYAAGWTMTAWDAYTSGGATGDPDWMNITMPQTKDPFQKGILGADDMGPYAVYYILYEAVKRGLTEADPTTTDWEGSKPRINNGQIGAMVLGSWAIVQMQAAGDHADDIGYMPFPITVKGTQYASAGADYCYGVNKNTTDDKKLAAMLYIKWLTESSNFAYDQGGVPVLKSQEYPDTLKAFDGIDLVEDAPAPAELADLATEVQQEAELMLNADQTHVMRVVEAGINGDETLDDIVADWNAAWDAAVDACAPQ
Briefly: isothermal titration calorimetry. The class given is binding. The settings on record: 25°C, 50 mM sodium phosphate pH 6.5; n = 0.8. On the technique in general: In ITC the heat of successive injections is recorded.

With `OC[C@H]1O[C@@H](O[C@H]2[C@H](O)[C@H](O)[C@H](O[C@H]3[C@H](O)[C@H](O)[C@H](O[C@H]4[C@H](O)[C@H](O)[C@H](O[C@H]5[C@H](O)[C@H](O)[C@H](O[C@H]6[C@H](O)[C@H](O)C(O)O[C@@H]6CO)O[C@@H]5CO)O[C@@H]4CO)O[C@@H]3CO)O[C@@H]2CO)[C@@H](O)[C@@H](O)[C@@H]1O` (stereo partly shown) [M6, mannohexaose], the Kd is 189 ± 1.4 µM.

One may read the Kd as a measure of binding affinity in units of concentration.
